Test results: patent US8324404B2, “3-thia-10-aza-phenanthrene derivatives” (Nycomed GmbH, priority 2004, dated 2012)

Target: T1, PDE4B2 (Homo sapiens, UniProt Q07343)
T1 construct: made in house; host or cells: SF21 insect cells (baculovirus, pCR-Bac vector; virus made in SF9 cells)
Test: Inhibition of PDE4B2 activity, modified [3H]cAMP SPA (scintillation proximity assay) test
Format: biochemical
Settings: recombinant PDE4B2 (GB no. M97515) expressed in SF21 insect cells; 0.5 μM cAMP; 15 min at 37° C.; read-out: PDE4 Inhibition [measured as −logIC50 (mol/l)] (converted)
Protocol: The PDE4B2 (GB no. M97515) was a gift of Prof. M. Conti (Stanford University, USA). It was amplified from the original plasmid (pCMV5) via PCR with primers Rb9 (5′-[…]-3′) and Rb10 (5′-[…]-3′) and cloned into the pCR-Bac vector (Invitrogen, Groningen, NL).
The recombinant baculovirus was prepared by means of homologous recombination in SF9 insect cells. The expression plasmids were cotransfected with Bac-N-Blue (Invitrogen, Groningen, NL) or Baculo-Gold DNA (Pharmingen, Hamburg) using a standard protocol (Pharmingen, Hamburg). Wt virus-free recombinant virus supernatants were selected using plaque assay methods. After that, high-titre virus supernatants were prepared by amplifying 3 times. PDE4B2 was expressed in SF21 cells by infecting 2×10^6 cells/ml with an MOI (multiplicity of infection) between 1 and 10 in serum-free SF900 medium (Life Technologies, Paisley, UK). The cells were cultured at 28° C. for 48-72 hours, after which they were pelleted for 5-10 min at 1000 g and 4° C.
The SF21 insect cells were resuspended, at a concentration of approx. 10^7 cells/ml, in ice-cold ([…]) homogenization buffer (20 mM Tris, pH 8.2, containing the following additions: 140 mM NaCl, 3.8 mM KCl, 1 mM EGTA, 1 mM MgCl2, 10 mM-mercaptoethanol, 2 mM benzamidine, 0.4 mM Pefablock, 10 μM leupeptin, 10 μM pepstatin A, 5 μM trypsin inhibitor) and disrupted by ultrasonication. The homogenate was then centrifuged for 10 min at 1000×g and the supernatant was stored at −80° C. until sub-sequent use (see below). The protein content was determined by the Bradford method (BioRad, Munich) using BSA as the standard.
PDE4B2 activity was inhibited by the said compounds in a modified SPA (scintillation proximity assay) test, supplied by Amersham Biosciences (see procedural instructions “phosphodiesterase [3H]cAMP SPA enzyme assay, code TRKO 7090”), carried out in 96-well microtitre plates (MTP's). The test volume is 100 μl and contains 20 mM Tris buffer (pH 7.4), 0.1 mg of BSA (bovine serum albumin)/ml, 5 mM Mg^2+, 0.5 μM cAMP (including about 50,000 cpm of [3H]cAMP), 1 μl of the respective substance dilution in DMSO and sufficient recombinant PDE (1000×g supernatant, see above) to ensure that 10-20% of the cAMP is converted under the said experimental conditions. […] After a preincubation of 5 min at 37° C., the reaction is started by adding the substrate (cAMP) and the assays are incubated for a further 15 min; after that, they are stopped by adding SPA beads (50 μl). […] After the beads have been sedimented (>30 min), the MTP's are analyzed in commercially available luminescence detection devices. The corresponding IC50 values of the compounds for the inhibition of PDE activities are determined from the concentration-effect curves by means of non-linear regression.

T1 sequence (Q07343 1-564 isoform Q07343-2): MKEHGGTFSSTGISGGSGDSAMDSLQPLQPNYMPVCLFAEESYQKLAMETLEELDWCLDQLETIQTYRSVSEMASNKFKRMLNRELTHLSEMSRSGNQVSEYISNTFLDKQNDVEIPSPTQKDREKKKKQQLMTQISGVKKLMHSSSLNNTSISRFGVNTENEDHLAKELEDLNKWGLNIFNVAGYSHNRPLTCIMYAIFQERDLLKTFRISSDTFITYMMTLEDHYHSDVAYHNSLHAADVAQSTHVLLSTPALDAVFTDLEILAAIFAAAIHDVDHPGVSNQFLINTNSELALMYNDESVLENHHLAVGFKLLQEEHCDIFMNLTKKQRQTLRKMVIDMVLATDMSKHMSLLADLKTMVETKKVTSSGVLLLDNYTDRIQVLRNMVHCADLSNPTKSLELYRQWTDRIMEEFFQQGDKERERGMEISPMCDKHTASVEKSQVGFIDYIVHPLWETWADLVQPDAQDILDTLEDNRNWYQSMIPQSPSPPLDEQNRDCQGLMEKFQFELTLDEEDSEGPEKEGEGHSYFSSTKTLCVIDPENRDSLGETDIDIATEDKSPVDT

IC50 | SMILES
0.145 µM | CCOc1cc2c(cc1OC)C(c1ccc(C(=O)N(C(C)C)C(C)C)cc1)=N[C@@H]1CC[S+]([O-])C[C@H]21 (single isomer, unassigned) [Compound 2]
0.00331 µM | CCOc1cc2c(cc1OC)C(c1ccc(C(=O)N(C(C)C)C(C)C)cc1)=N[C@@H]1CC[S+]([O-])C[C@H]21 (single isomer, unassigned) [Compound 3]
0.000724 µM | CCOc1cc2c(cc1OC)C(c1ccc(C(=O)N(C(C)C)C(C)C)cc1)=N[C@@H]1CCSC[C@H]21 [Compound 1, 4-((4aR,10aR)-6-Ethoxy-7-methoxy-1,4,4a,10a-tetrahydro-2H-3-thia-10-aza-phenanthren-9-yl)-N,N-diisopropyl-benzamide]
0.02 µM | CCOc1cc2c(cc1OC)C(c1ccc(C(=O)N(C(C)C)C(C)C)cc1)=[N+]([O-])[C@@H]1CCS(=O)(=O)C[C@H]21 [Compound 5, 4-((4aR,10aR)-6-Ethoxy-7-methoxy-3,3-dioxo-10-oxy-1,2,3,4,4a,10a-hexahydro-3l^6-thia-10-aza-phenanthren-9-yl)-N,N-diisopropyl-benzamide]
